Reference: US20200399238A1, “THERAPEUTIC AURONES” (MIDDLE TENNESSEE STATE UNIVERSITY, priority 2016, published 2020)
Where two headings read alike, the source gives them in different places.

Assays:
[1] = system: Trypanosoma brucei brucei 427 cells; experiment: T. brucei culture and assay (PrestoBlue); format: cell-based
[2] = system: Leishmania amazonensis promastigotes expressing beta-lactamase; experiment: microbe, parasite or virus in culture; format: cell-based
Procedure: Leishmania amazonensis promastigotes expressing beta-lactamase (Buckner et al., Am. J. Trop. Med. Hyg. 72 (2005) 600-605. doi:72/5/600 [pii]) were cultured in RPMI supplemented with 10% fetal calf serum and 1% pen-strep-glut solution (Sigma) at 27° C. Stationary phase promastigotes were adjusted in fresh media, treated with compounds, and incubated at 37° C. At 24 hours, 100 uL of cultures was added to 50 uL of the CellTiter Glo® solution. Luminescence readings were taken with a spectrophotometer and used to calculate inhibition.

[3] = system: rat skeletal muscle cell line, L6; experiment: cells; format: cell-based
Procedure: Cells were maintained in high glucose DMEM obtained from HyClone Laboratories (Logan, Utah) and supplemented with FCS and P/S at the same concentrations used for parasite culture. Cells were passaged every 3-4 days and maintained in a 37° C. humidified incubator in an atmosphere of 5% CO2. For assays. cells were detached, counted using a hemocytometer, and adjusted using fresh media to deliver 5×10^3 cells per well (90 μL) in black walled, flat clear bottom 96-well microtiter plates. After 3 h incubation for attachment, compounds diluted in culture medium were added (10 μL) to triplicate wells. Positive controls (cells treated with podophyllotoxin (Sigma, St. Louis, Mo.)), negative controls (untreated cells), solvent controls (DMSO) and media blanks were included on each plate. Following incubation for 71.5 h, 11 μL of PrestoBlue was added into each well.

[4] = system: Trypanosoma cruzi Tulahuen cells expressing beta-galactosidase; experiment: T. cruzi intracellular assay (beta-galactosidase, L6 host cells)
[5] = Trypanosoma brucei, Table 1, mean of 2(+) independent trials, read-out: IC50 T. brucei
[6] = Leishmania amazonensis, read-out: IC50 L. amaz.
[7] = Rattus norvegicus, Table 1, read-out: IC50 Toxicity (L6)
[8] = Rattus norvegicus, Table 3B, weighted means of two or more independent trials, read-out: IC50 L6
[9] = Trypanosoma cruzi, TULAHUEN, read-out: IC50 T. cruzi, Table 1, intracellular assay, mean of 2(+) trials (^c one trial)
[10] = Trypanosoma cruzi, TULAHUEN, read-out: IC50 T. cruzi, Table 2, intracellular assay, mean of 2(+) independent trials
[11] = Trypanosoma cruzi, TULAHUEN, read-out: IC50 TC-I, Table 3B, weighted means of two or more independent trials
[12] = Trypanosoma cruzi, TULAHUEN, read-out: T. cruzi IC50 dose
[13] = Table 2, mean of 2(+) independent trials, read-out: IC50 T. brucei
[14] = Table 2, L6 IC50 / L. amazonensis IC50
[15] = Table 2, L6 mammalian cells, read-out: IC50 Toxicity (L6)

For `O=C1/C(=C/c2c[nH]c3ccccc23)Oc2ccccc21` [Aurone 9062, (Z)-2-((1H-indol-3-yl)methylene)benzofuran-3(2H)-one], the IC50 [1, 5] was 24.8 µM, the IC50 [2, 6] was 1.66 µM and the IC50 [3, 7] was 64.7 µM. For the same compound, the IC50 [3, 8] was 64.7 µM, the IC50 [4, 9] was 8.53 µM and the IC50 [4, 10] was 8.53 µM. The IC50 [4, 11] was 8.53 µM and the IC50 [4, 12] was less than 10 µM.

`O=C1/C(=C/c2ccncc2)Oc2ccccc21` [Aurone 2008] gave an IC50 [1, 5] greater than 50 µM, an IC50 [2, 6] of 26.3 µM and an IC50 [3, 7] of 81.1 µM. The IC50 [3, 8] was 81.1 µM, the IC50 [4, 9] was 16.4 µM and the IC50 [4, 11] was 16.4 µM.

In the case of `O=C1/C(=C/c2cccs2)Oc2ccccc21` [Aurone 2004], the “activity against T. brucei” value [1] is reported as “moderate activity”, the IC50 [1, 5] is reported as 41.8 µM and the IC50 [2, 6] is reported as less than 1 µM. The IC50 [3, 7] was greater than 100 µM, the IC50 [3, 8] was greater than 100 µM and the IC50 [4, 9] was 13.7 µM. It also gave an IC50 [4, 10] of 13.7 µM, an IC50 [4, 11] of 13.7 µM and an IC50 [4, 12] of 13.7 µM.

Work on `O=C1/C(=C/[c-]2cccc2)Oc2ccccc21.[Fe+2].c1cc[cH-]c1` [Aurone 3001] yielded an IC50 ([1]; Table 1, mean of 2(+) independent trials, read-out: IC50 T. brucei) greater than 50 µM, an IC50 [1, 13] greater than 50 µM and an IC50 ([1]; Table 3C, weighted means of two or more independent trials, read-out: IC50 TB) greater than 50 µM. The IC50 ([2]; Table 1, mean of 2(+) trials, ^c value from one trial, read-out: IC50 L. amaz.) was less than 1 µM, the “Selectivity L6/La” value [2, 14] was greater than 100 and the IC50 ([2]; Table 2, mean of 2(+) independent trials, read-out: IC50 L. amaz.) was less than 1 µM. It also gave an IC50 ([3]; Table 1, read-out: IC50 Toxicity (L6)) greater than 100 µM, an IC50 [3, 15] greater than 100 µM and an IC50 ([3]; Table 3C, weighted means of two or more independent trials, read-out: IC50 L6) greater than 100 µM. For the same compound, the IC50 ([4]; read-out: IC50 T. cruzi, Table 1, intracellular assay, mean of 2(+) trials (^c one trial)) was greater than 50 µM, the IC50 ([4]; read-out: IC50 T. cruzi, Table 2, intracellular assay, mean of 2(+) independent trials) was greater than 50 µM and the IC50 ([4]; read-out: IC50 TC-I, Table 3C, intracellular T. cruzi, weighted means of two or more independent trials) was greater than 50 µM.

With `O=C1/C(=C/c2ccc(C(F)(F)F)cc2)Oc2cc(O)ccc21` [Aurone 2909, (Z)-6-hydroxy-2-(4-(trifluoromethyl)benzylidene)benzofuran-3(2H)-one] the IC50 [1, 13] was greater than 50 µM, the IC50 [1, 5] was greater than 50 µM and the IC50 [2, 6] was 3.97 µM. For the same compound, the “Selectivity L6/La” value ([2]; Table 1) was greater than 25.19, the “Selectivity L6/La” value [2, 14] was greater than 25.19 and the IC50 [3, 7] was greater than 100 µM. It also gave an IC50 [3, 15] greater than 100 µM, an IC50 [4, 9] greater than 50 µM and an IC50 [4, 10] greater than 50 µM.

`O=C1/C(=C/c2ccc[nH]2)Oc2cc(O)ccc21` [Aurone 2906, (Z)-2-((1H-pyrrol-2-yl)methylene)-6-hydroxybenzofuran-3(2H)-one] gave an IC50 [1, 5] of 34.6 µM, an IC50 [2, 6] of 19.9 µM and an IC50 [3, 7] greater than 100 µM. The IC50 [4, 9] was greater than 50 µM.

In the case of `O=C1/C(=C/c2ccc(Br)cc2)Oc2ccccc21` [Aurone 2009], the IC50 [1, 5] is reported as 41.7 µM, the IC50 [2, 6] is reported as 10.3 µM and the IC50 [3, 7] is reported as greater than 100 µM. It also gave an IC50 [4, 9] of 11.4 µM.

`O=C1/C(=C/c2ccc(Br)cc2)Oc2cc(O)ccc21` [Aurone 2905, (Z)-2-(4-bromobenzylidene)-6-hydroxybenzofuran-3(2H)-one] was tested, and the IC50 [1, 5] was greater than 50 µM, the IC50 [2, 6] was 39 µM and the IC50 [3, 7] was greater than 100 µM. The IC50 [4, 9] was greater than 50 µM.

Work on `COc1ccc(/C=C2\Oc3ccccc3C2=O)cc1OC` [Aurone 2011] yielded an IC50 [1, 5] of 22.9 µM, an IC50 [2, 6] of 1.01 µM and an IC50 [3, 7] of 51.9 µM. It also gave an IC50 [4, 9] of 21.9 µM and an IC50 [4, 10] of 21.9 µM.

`O=C1/C(=C/c2ccc(C(F)(F)F)cc2)Oc2ccccc21` [Aurone 6c, (Z)-2-(4-(trifluoromethyl)benzylidene)benzofuran-3(2H)-one] gave an IC50 [4, 12] of less than 10 µM.

`N#Cc1ccc(/C=C2\Oc3ccccc3C2=O)cc1` [Aurone 2014] showed an IC50 [1, 5] of 8.12 µM, an IC50 [2, 6] of 10.7 µM and an IC50 [3, 7] of 239 µM. The IC50 [4, 9] was 23.5 µM and the IC50 [4, 10] was 23.5 µM.

Work on `O=C1/C(=C/c2ccc[nH]2)Nc2ccccc21` [AA5] yielded an IC50 [1, 5] of 49.3 µM, an IC50 [3, 7] of 39.7 µM and an IC50 [4, 9] of 27.8 µM.

Compound `O=C1/C(=C/c2cccc(Br)c2)Oc2ccccc21` [Aurone 9030, (Z)-2-(3-bromobenzylidene)benzofuran-3(2H)-one] has an IC50 [1, 13] greater than 50 µM, an IC50 [1, 5] greater than 50 µM and an IC50 [2, 6] of less than 1 µM. The IC50 ([2]; Leishmania amazonensis, read-out: IC50 L. amaz. (footnote c: value obtained from one trial)) was less than 1 µM, the “Selectivity L6/La” value ([2]; Table 1) was greater than 100 and the “Selectivity L6/La” value [2, 14] was greater than 100. It also gave an IC50 [3, 7] greater than 100 µM, an IC50 ([3]; Rattus norvegicus, Table 3A, weighted means of two or more independent trials, read-out: IC50 L6) greater than 100 µM and an IC50 [3, 15] greater than 100 µM. The “Selectivity L6/Tc” value ([4]; Table 1, intracellular T. cruzi IC50) was greater than 13.61, the “Selectivity L6/Tc” value ([4]; Table 2, L6 IC50 / T. cruzi IC50 (intracellular assay)) was greater than 13.61 and the “Selectivity L6/TC-I” value ([4]; Table 3A, estimated from highest L6 dose tested where no L6 IC50) was greater than 13.61. For the same compound, the IC50 [4, 9] was 7.35 µM, the IC50 [4, 10] was 7.35 µM and the IC50 ([4]; Trypanosoma cruzi, TULAHUEN, read-out: IC50 TC-I, Table 3A, weighted means of two or more independent trials) was 7.35 µM.

Work on `O=C1/C(=C/c2ccco2)Oc2ccccc21` [Aurone 2023] yielded an IC50 ([1]; Trypanosoma brucei, read-out: IC50 TB) greater than 50 µM, an IC50 [1, 5] greater than 50 µM and an IC50 ([1]; Trypanosoma brucei, read-out: T. brucei IC50 dose) greater than 50 µM. The IC50 [2, 6] was less than 1 µM, the IC50 [3, 7] was greater than 100 µM and the IC50 [3, 8] was greater than 100 µM. It also gave an IC50 [4, 9] of 6.97 µM, an IC50 [4, 10] of 6.97 µM and an IC50 [4, 11] of 6.97 µM. For the same compound, the IC50 [4, 12] was less than 10 µM.
